# How the values were obtained:
# SN12C = test: Cytotoxicity against human SN12C cells assessed as cell growth at 10 uM after 72 hrs by SRB assay relative to control; format: functional; details: read-out: Activity
# SK-MEL-28 = test: Cytotoxicity against human SK-MEL-28 cells assessed as cell growth at 10 uM after 72 hrs by SRB assay relative to control; format: functional; details: SK-MEL-28, 72 h, read-out: Activity
# SR = test: Cytotoxicity against human SR cells assessed as cell growth at 10 uM after 72 hrs by SRB assay relative to control; format: functional; details: read-out: Activity
# [1] = Cytotoxicity against human SF539 cells assessed as cell growth at 10 uM after 72 hrs by SRB assay relative to control; format: functional; details: SF-539, 72 h, read-out: Activity
# NCI-H23 = test: Cytotoxicity against human NCI-H23 cells assessed as cell growth at 10 uM after 72 hrs by SRB assay relative to control; format: functional; details: NCI-H23, 72 h, read-out: Activity
# SK-MEL-2 = test: Cytotoxicity against human SK-MEL-2 cells assessed as cell growth at 10 uM after 72 hrs by SRB assay relative to control; format: functional; details: SK-MEL-2, 72 h, read-out: Activity
# [2] = target: Vascular endothelial growth factor receptor 2 (Homo sapiens, UniProt P35968); test: Inhibition of human VEGFR2 at 10 uM after 20 to 40 mins by liquid scintillation counting analysis in presence of […]; set-up: scale not given: the % may be the effect or the level left
# Sequence of Vascular endothelial growth factor receptor 2 (P35968 whole entry): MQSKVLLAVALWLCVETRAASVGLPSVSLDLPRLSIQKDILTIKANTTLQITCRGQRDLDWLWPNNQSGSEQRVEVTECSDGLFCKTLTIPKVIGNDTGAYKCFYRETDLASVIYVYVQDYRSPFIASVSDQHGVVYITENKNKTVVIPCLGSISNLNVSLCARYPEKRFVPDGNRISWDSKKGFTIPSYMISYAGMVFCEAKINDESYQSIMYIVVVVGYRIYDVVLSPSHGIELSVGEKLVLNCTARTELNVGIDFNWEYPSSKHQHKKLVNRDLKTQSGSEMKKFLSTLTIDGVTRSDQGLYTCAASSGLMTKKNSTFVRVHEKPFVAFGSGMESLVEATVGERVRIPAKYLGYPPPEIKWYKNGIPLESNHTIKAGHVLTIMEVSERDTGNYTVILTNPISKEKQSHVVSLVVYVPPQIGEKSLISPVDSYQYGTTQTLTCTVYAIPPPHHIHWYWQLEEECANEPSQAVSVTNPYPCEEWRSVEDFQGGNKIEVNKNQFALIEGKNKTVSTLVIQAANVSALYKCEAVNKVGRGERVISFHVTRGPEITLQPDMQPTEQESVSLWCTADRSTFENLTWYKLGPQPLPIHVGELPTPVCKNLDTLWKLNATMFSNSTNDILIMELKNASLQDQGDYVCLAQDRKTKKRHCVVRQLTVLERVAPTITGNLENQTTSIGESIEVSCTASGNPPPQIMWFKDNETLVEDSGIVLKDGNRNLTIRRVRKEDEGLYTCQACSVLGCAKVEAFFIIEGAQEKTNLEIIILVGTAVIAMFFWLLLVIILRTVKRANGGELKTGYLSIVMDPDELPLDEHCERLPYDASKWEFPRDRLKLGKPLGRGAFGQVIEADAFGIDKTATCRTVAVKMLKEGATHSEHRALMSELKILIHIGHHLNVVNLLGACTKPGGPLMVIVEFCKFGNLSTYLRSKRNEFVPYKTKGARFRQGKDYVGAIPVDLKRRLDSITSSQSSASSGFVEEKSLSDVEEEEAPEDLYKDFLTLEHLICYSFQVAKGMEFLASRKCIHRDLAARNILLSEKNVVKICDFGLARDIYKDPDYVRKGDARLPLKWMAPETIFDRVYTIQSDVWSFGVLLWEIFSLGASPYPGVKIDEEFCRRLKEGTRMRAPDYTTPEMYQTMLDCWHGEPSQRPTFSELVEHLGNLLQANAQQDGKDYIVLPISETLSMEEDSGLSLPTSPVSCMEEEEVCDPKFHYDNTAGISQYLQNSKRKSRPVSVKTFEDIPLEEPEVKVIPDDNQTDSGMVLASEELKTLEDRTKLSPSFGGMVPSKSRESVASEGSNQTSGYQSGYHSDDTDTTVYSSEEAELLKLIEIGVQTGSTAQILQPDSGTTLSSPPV
# [3] = Cytotoxicity against human IGROV1 cells assessed as cell growth at 10 uM after 72 hrs by SRB assay relative to control; format: functional; details: IGROV-1, 72 h, read-out: Activity
# [4] = Cytotoxicity against human TK10 cells assessed as cell growth at 10 uM after 72 hrs by SRB assay relative to control; format: functional; details: TK-10, 72 h, read-out: Activity
# [5] = Cytotoxicity against human RXF393 cells assessed as cell growth at 10 uM after 72 hrs by SRB assay relative to control; format: functional; details: RXF 393, 72 h, read-out: Activity
# MDA-MB-435 = test: Cytotoxicity against human MDA-MB-435 cells assessed as cell growth at 10 uM after 72 hrs by SRB assay relative to control; format: functional; details: MDA-MB-435, 72 h, read-out: Activity
# [6] = Cytotoxicity against human HCT116 cells assessed as cell growth at 10 uM after 72 hrs by SRB assay relative to control; format: functional; details: HCT-116, 72 h, read-out: Activity
# MDA-MB-231 = test: Cytotoxicity against human MDA-MB-231 cells assessed as cell growth at 10 uM after 72 hrs by SRB assay relative to control; format: functional; details: MDA-MB-231, 72 h, read-out: Activity
# [7] = Cytotoxicity against human OVCAR8 cells assessed as cell growth at 10 uM after 72 hrs by SRB assay relative to control; format: functional; details: OVCAR-8, 72 h, read-out: Activity
# HT-29 = test: Cytotoxicity against human HT-29 cells assessed as cell growth at 10 uM after 72 hrs by SRB assay relative to control; format: functional; details: HT-29, 72 h, read-out: Activity
# [8] = Cytotoxicity against human OVCAR5 cells assessed as cell growth at 10 uM after 72 hrs by SRB assay relative to control; format: functional; details: OVCAR-5, 72 h, read-out: Activity
# T47D = test: Cytotoxicity against human T47D cells assessed as cell growth at 10 uM after 72 hrs by SRB assay relative to control; format: functional; details: read-out: Activity
# [9] = Cytotoxicity against human BT549 cells assessed as cell growth at 10 uM after 72 hrs by SRB assay relative to control; format: functional; details: BT-549, 72 h, read-out: Activity
# [10] = Cytotoxicity against human DU145 cells assessed as cell growth at 10 uM after 72 hrs by SRB assay relative to control; format: functional; details: DU-145, 72 h, read-out: Activity
# [11] = Cytotoxicity against human OVCAR3 cells assessed as cell growth at 10 uM after 72 hrs by SRB assay relative to control; format: functional; details: OVCAR-3, 72 h, read-out: Activity
# [12] = Cytotoxicity against human SNB75 cells assessed as cell growth at 10 uM after 72 hrs by SRB assay relative to control; format: functional; details: SNB-75, 72 h, read-out: Activity
# [13] = Cytotoxicity against human HL-60(TB) cells assessed as cell growth at 10 uM after 72 hrs by SRB assay relative to control; format: functional; details: HL-60, 72 h, read-out: Activity
# M14 = test: Cytotoxicity against human M14 cells assessed as cell growth at 10 uM after 72 hrs by SRB assay relative to control; format: functional; details: M14, 72 h, read-out: Activity
# [14] = Cytotoxicity against human RPMI8226 cells assessed as cell growth at 10 uM after 72 hrs by SRB assay relative to control; format: functional; details: RPMI-8226, 72 h, read-out: Activity
# [15] = Cytotoxicity against human UACC62 cells assessed as cell growth at 10 uM after 72 hrs by SRB assay relative to control; format: functional; details: UACC-62, 72 h, read-out: Activity
# [16] = Cytotoxicity against human HCC2998 cells assessed as cell growth at 10 uM after 72 hrs by SRB assay relative to control; format: functional; details: HCC 2998, 72 h, read-out: Activity
# [17] = Cytotoxicity against human UACC257 cells assessed as cell growth at 10 uM after 72 hrs by SRB assay relative to control; format: functional; details: UACC-257, 72 h, read-out: Activity
# NCI-H460 = test: Cytotoxicity against human NCI-H460 cells assessed as cell growth at 10 uM after 72 hrs by SRB assay relative to control; format: functional; details: NCI-H460, 72 h, read-out: Activity
# [18] = Cytotoxicity against human COLO205 cells assessed as cell growth at 10 uM after 72 hrs by SRB assay relative to control; format: functional; details: COLO 205, 72 h, read-out: Activity
# MCF7 = test: Cytotoxicity against human MCF7 cells assessed as cell growth at 10 uM after 72 hrs by SRB assay relative to control; format: functional; details: MCF7, 72 h, read-out: Activity
# [19] = Cytotoxicity against human SW620 cells assessed as cell growth at 10 uM after 72 hrs by SRB assay relative to control; format: functional; details: SW-620, 72 h, read-out: Activity
# [20] = Cytotoxicity against human SF268 cells assessed as cell growth at 10 uM after 72 hrs by SRB assay relative to control; format: functional; details: SF-268, 72 h, read-out: Activity
# [21] = Cytotoxicity against human OVCAR4 cells assessed as cell growth at 10 uM after 72 hrs by SRB assay relative to control; format: functional; details: OVCAR-4, 72 h, read-out: Activity
# 786-0 = test: Cytotoxicity against human 786-0 cells assessed as cell growth at 10 uM after 72 hrs by SRB assay relative to control; format: functional; details: 786-0, 72 h, read-out: Activity
# [22] = Cytotoxicity against human HOP62 cells assessed as cell growth at 10 uM after 72 hrs by SRB assay relative to control; format: functional; details: HOP-62, 72 h, read-out: Activity
# [23] = Cytotoxicity against human PC3 cells assessed as cell growth at 10 uM after 72 hrs by SRB assay relative to control; format: functional; details: PC-3, 72 h, read-out: Activity
SMILES,growth at 10 µM (SK-MEL-28) [%],growth at 10 µM (SR) [%],growth at 10 µM [1] [%],growth at 10 µM (NCI-H23) [%],Activity [2] [%],growth at 10 µM [3] [%],growth at 10 µM [4] [%],growth at 10 µM [5] [%],growth at 10 µM (MDA-MB-435) [%],growth at 10 µM [6] [%],growth at 10 µM [7] [%],growth at 10 µM (HT-29) [%],growth at 10 µM [8] [%],growth at 10 µM (T47D) [%],growth at 10 µM [9] [%],growth at 10 µM [10] [%],growth at 10 µM [11] [%],growth at 10 µM [12] [%],growth at 10 µM [13] [%],growth at 10 µM (M14) [%],other results
Cc1ccc2nc(Nc3ncnc4c3cnn4-c3ccccc3)sc2c1,95.3,44.8,101,106,-1,99.6,118,99,91.9,99.4,107,103,96,108,108,103,108,107,103,107,growth at 10 µM (SN12C): 97.5%; growth at 10 µM (SK-MEL-2): 109%; growth at 10 µM (MDA-MB-231): 102%; growth at 10 µM [14]: 102%; growth at 10 µM [15]: 94.7%; growth at 10 µM [16]: 106%; growth at 10 µM [17]: 112%; growth at 10 µM (NCI-H460): 98.4%; growth at 10 µM [18]: 110%; growth at 10 µM (MCF7): 97.2%; growth at 10 µM [19]: 100%; growth at 10 µM [20]: 114%; growth at 10 µM [21]: 104%; growth at 10 µM (786-0): 103%; growth at 10 µM [22]: 110%; growth at 10 µM [23]: 98.3%
Clc1ccc(-n2ncc3c(Nc4ccc(OCc5ccccc5)cc4)ncnc32)cc1,90.4,83.3,92.4,92.7,0,102,92.1,97.8,83.2,94.8,98,84.7,92.8,82.5,107,100,102,86.4,86.9,93.6,growth at 10 µM [14]: 86.4%; growth at 10 µM [15]: 105%; growth at 10 µM [16]: 98%; growth at 10 µM [17]: 102%; growth at 10 µM (NCI-H460): 93.1%; growth at 10 µM [18]: 91.2%; growth at 10 µM (MCF7): 95.9%; growth at 10 µM [19]: 101%; growth at 10 µM [20]: 99.7%; growth at 10 µM [21]: 80.6%; growth at 10 µM (786-0): 103%; growth at 10 µM [22]: 81.6%; growth at 10 µM [23]: 86.1%
c1ccc(COc2ccc(Nc3ncnc4c3cnn4-c3ccccc3)cc2)cc1,96,92,99.6,109,-5,100,111,102,90.1,106,113,116,98.9,100,106,104,113,102,99.8,101,growth at 10 µM (SN12C): 97.4%; growth at 10 µM (SK-MEL-2): 115%; growth at 10 µM (MDA-MB-231): 101%; growth at 10 µM [14]: 96.5%; growth at 10 µM [15]: 93.3%; growth at 10 µM [16]: 108%; growth at 10 µM [17]: 121%; growth at 10 µM (NCI-H460): 93.7%; growth at 10 µM [18]: 107%; growth at 10 µM (MCF7): 100%; growth at 10 µM [19]: 98.7%; growth at 10 µM [20]: 108%; growth at 10 µM [21]: 91.3%; growth at 10 µM (786-0): 100%; growth at 10 µM [22]: 104%; growth at 10 µM [23]: 88.5%
